Test results reported in patent US20110256605A1, “CELLS WITH NON-NATURAL PHYSIOLOGIES DERIVED BY EXPRESSING LIGHT-POWERED PROTON PUMPS IN ONE OR MORE MEMBRANES” (The Regents of the University of California, a California …, priority 2010, published 2011).

Test system: E. coli flagellar motor / cellular pmf
Assay type: cell-based
Method: Cell culture. We expressed the SAR86 γ-proteobacterial PR-variant (Geneart, Inc) in E. coli cells (RP437 DE3 ΔcheY Cm^R) using a T7 based expression system (pET200, Kan^R, Invitrogen). Cells were grown in T broth (1% Tryptone, 0.5% NaCl) supplemented with kanamycin (25 μg/ml). In mid-log phase, PR expression was induced with 1 mM IPTG and the medium was supplemented with 10 μM ethanolic all-trans-retinal. Cells were collected in late log phase by gentle centrifugation (4500×g, 5 min) and carefully resuspended in motility medium (1 mM PBS (Ambion), 0.1 mM EDTA, pH 7.4). PR^+ denotes cells expressing proteorhodopsin, and PR^− denotes cells (RP437 DE3 ΔcheY Cm^R) without the PR plasmid. […] Unless otherwise noted, all experiments were done in glucose free motility medium and at room temperature.
Instrumentation. […]
To increase the accuracy of the flagellar rotation measurements, a tethered cell geometry was employed (FIG. 2A) which permitted the extended observation of the same bacterium in different illumination conditions. PR^+ cells were allowed to stick to the coverslip via a flagellum, and the angular rotation rate of cells was monitored (FIG. 2A). […]

**Q.** Which IC50 (without green light, azide 0 to 110 mM, read-out: Azide concentration at which pmf dropped to 50% of its original value) does the source give for `[N-]=[N+]=[N-]` [azide, sodium azide] here?
**A.** 55 mM

**Q.** For `N#CC(C#N)=NNc1cccc(Cl)c1` [CCCP, carbonyl cyanide 3-chlorophenylhydrazone], which “Effect on bacterial motility” value (100 μM, low oxygen cultures, not restored with 50 seconds of green illumination) is on record?
**A.** eliminated all bacterial motility
